Data: patent US20230295109A1, “PYRIDINONE COMPOUNDS FOR THE TREATMENT OF AUTOIMMUNE DISEASE” (F. Hoffmann-La Roche AG, priority 2020, published 2023)

Key:
[1] = Parallel Artificial Membrane Permeability Assay (PAMPA); assay type: in vitro ADME; conditions: for Membrane Retention / Papp at 4 h: PAMPA; for Membrane Retention: pH 7.40, 4 hours; for Papp at 4 h: pH 7.4, pH 7.40, room temperature, read-out: PAMPA Pe; for PAMPA category: class from Pe and membrane retention
Description: PAMPA (Parallel Artificial Membrane Permeability Assay) is a first-line permeability screen for drug candidates. This assay mimics the transcellular absorption conditions using an artificial phospholipid membrane and generates a permeability value that can be used for compound ranking and optimization as well as input parameters for in silico models to predict intestinal absorption.
Permeation experiments are carried out in hydrophobic PVDF 96-well microtiter filter plates (MultiScreen Filter Plate, Millipore, #MAIPN4550). Each well is coated with PVDF membrane, which is prepared with 5 µL Dodecane (Sigma, D221104) that contains 1% lecithin (Sigma, P3556-1G).
The typical PAMPA experimental protocol is as follows: The donor plate is placed on a Teflon acceptor plate that has been pre-filled with 150 µL of 100 mM PBS buffer (2.6 g KH2PO4 and 18.5 g K2HPO4.3H2O are dissolved in about 1000 mL of ultra-pure water and mixed thoroughly. The pH is adjusted to 7.40 ± 0.05, using either 1 M sodium hydroxide or 1 M hydrochloric acid.) containing 5% DMSO. The filter on the bottom of each acceptor well is filled with 300 µL of 100 mM PBS buffer (2.6 g KH2PO4 and 18.5 g K2HPO4.3H2O are dissolved in about 1000 mL of ultra-pure water, mixed thoroughly. The pH was adjusted to 7.40 ± 0.05, using either 1 M sodium hydroxide or 1 M hydrochloric acid.). The resulting sandwich is incubated at room temperature under constant shaking (300 rpm) for 4 hours. The sandwich is then disassembled. Before incubation, spike 20 µL dosing solution and mix with 250 µL PBS and 130 µL quench solution (acetonitrile) as T0 sample. After incubation, collect 270 µL solutions from acceptor chamber, followed by the addition of 130 µL acetonitrile. Collect 20 µL solution from donor chamber and add 250 µL PBS and 130 µL acetonitrile. The concentration of compound in all samples are determined by LC-MS/MS and the equations for determining the permeability (Pe, 10^-6 cm/s ) are as follows.
VD is the volume of the donor well; VR is the volume of the acceptor well; Area is the active surface area of membrane; Time is the incubation time (14,400 s in this assay); CR and CD are the concentrations of compound in acceptor and donor solutions, respectively, at the completion of the assay; C0 is the concentration of compound in donor solution before incubation.
The main readout of the PAMPA assay is the permeability value Pe expressed in 10^-6 cm/s. Secondary readouts determined are the amounts of compound in the donor and acceptor compartments as well as compound retention in the membrane. Depending on the permeation rate and the membrane retention, compounds are classified as “low” (Pe < 0.2 and membrane retention <20%) or “medium & high” (Pe >= 0.2; or Pe < 0.2 and membrane retention >= 20%). Each sample is measured in triplicate; the standard deviation is determined for the permeation constant Pe.

[2] = Human microsome stability assay; assay type: in vitro ADME; conditions: 1 µM test compound, 0.5 mg/mL liver microsomal protein, 37° C., pH 7.4
Description: The human microsomal stability assay is used for early assessment of metabolic stability of a test compound in human liver microsomes.
Human liver microsomes (Cat.NO.: 452117, Corning, USA;Cat.NO.:H2610, Xenotech, USA) were preincubated with test compound for 10 minutes at 37° C. in 100 mM potassium phosphate buffer, pH 7.4. The reactions were initiated by adding NADPH regenerating system. The final incubation mixtures contained 1 µM test compound, 0.5 mg/mL liver microsomal protein, 1 mM MgCl2, 1 mM NADP, 1 unit/mL isocitric dehydrogenase and 6 mM isocitric acid in 100 mM potassium phosphate buffer, pH 7.4. After incubation times of 0, 3, 6, 9, 15 and 30 minutes at 37° C., 300 µL of cold acetonitrile (including internal standard) was added to 100 µL incubation mixture to terminate the reaction. Following precipitation and centrifugation, the amount of compound remaining in the samples were determined by LC-MS/MS. Controls of no NADPH regenerating system at zero and 30 minutes were also prepared and analyzed.

SMILES | Membrane Retention [1] | Papp at 4 h [1] | PAMPA category [1] | Clearance of Human microsome [2]
CCc1nc(N2CCN3CCN(c4cnc(N5CC6(CNCCO6)C5)nc4)CC3C2)ccc1-c1cc(C)c(=O)n(C)c1 (stereo not shown) [Example 19, 5-[2-ethyl-6-[2-[2-(5-oxa-2,8-diazaspiro[3.5]nonan-2-yl)pyrimidin-5-yl]-3,4,6,7,9,9a-hexahydro-1H-pyrazino[1,2-a]pyrazin-8-yl]-3-pyridyl]-1,3-dimethyl-pyridin-2-one] | 37.320% | 0.87 ×10⁻⁶ cm/s | medium & high (“medium & high” (Pe >= 0.2; or Pe < 0.2 and membrane retention >= 20%)) | –
Cc1cc(-c2ccc(N3CCN(Cc4ccc(N5CCNCC5)cn4)CC3)nc2C(C)C)cn(C)c1=O [Example 7, 5-[2-isopropyl-6-[4-[(5-piperazin-1-yl-2-pyridyl)methyl]piperazin-1-yl]-3-pyridyl]-1,3-dimethyl-pyridin-2-one] | 2.530% | 0.74 ×10⁻⁶ cm/s | medium & high (“medium & high” (Pe >= 0.2; or Pe < 0.2 and membrane retention >= 20%)) | 7.4 mL/min/kg
Cc1cc(-c2ccc(N3CCN(Cc4ccc(N5CCNCC5)nc4)CC3)nc2C(C)C)cn(C)c1=O [Example 11, 5-[2-isopropyl-6-[4-[(6-piperazin-1-yl-3-pyridyl)methyl]piperazin-1-yl]-3-pyridyl]-1,3-dimethyl-pyridin-2-one] | 24.900% | 0.6 ×10⁻⁶ cm/s | medium & high (“medium & high” (Pe >= 0.2; or Pe < 0.2 and membrane retention >= 20%)) | –
Cc1cc(-c2ccc(N3CCN(c4ccc5c(n4)CCNC5)CC3)nc2C(C)C)cn(C)c1=O [Example 15, 5-[2-isopropyl-6-[4-(5,6,7,8-tetrahydro-1,6-naphthyridin-2-yl)piperazin-1-yl]-3-pyridyl]-1,3-dimethyl-pyridin-2-one] | 27.680% | 0.23 ×10⁻⁶ cm/s | medium & high (“medium & high” (Pe >= 0.2; or Pe < 0.2 and membrane retention >= 20%)) | 8.7 mL/min/kg
Cc1cc(-c2ccc(N3CCN(Cc4ccc(N5CCNCC5)cc4)CC3)nc2C(C)C)cn(C)c1=O [Example 13, 5-[2-isopropyl-6-[4-[(4-piperazin-1-ylphenyl)methyl]piperazin-1-yl]-3-pyridyl]-1,3-dimethyl-pyridin-2-one] | 56.550% | 0.46 ×10⁻⁶ cm/s | medium & high (“medium & high” (Pe >= 0.2; or Pe < 0.2 and membrane retention >= 20%)) | –
CCc1nc(N2CCN(Cc3ccc(N4CCNCC4)cc3)CC2)ccc1-c1cc(C)c(=O)n(C)c1 [Example 5, 5-[2-ethyl-6-[4-[(4-piperazin-1-ylphenyl)methyl]piperazin-1-yl]-3-pyridyl]-1,3-dimethyl-pyridin-2-one] | 18.250% | 1.5 ×10⁻⁶ cm/s | medium & high (“medium & high” (Pe >= 0.2; or Pe < 0.2 and membrane retention >= 20%)) | –
CCc1nc(N2CCN(Cc3cnc(N4CC5(CNCCO5)C4)nc3)CC2)ccc1-c1cc(C)c(=O)n(C)c1 [Example 1, 5-[2-ethyl-6-[4-[[2-(5-oxa-2,8-diazaspiro[3.5]nonan-2-yl)pyrimidin-5-yl]methyl]piperazin-1-yl]-3-pyridyl]-1,3-dimethyl-pyridin-2-one] | -11.520% | 0.57 ×10⁻⁶ cm/s | medium & high (“medium & high” (Pe >= 0.2; or Pe < 0.2 and membrane retention >= 20%)) | 6.5 mL/min/kg
Cc1cc(-c2ccc(N3CCN(Cc4ncc(N5CCNCC5)cn4)CC3)nc2C(C)C)cn(C)c1=O [Example 12, 5-[2-isopropyl-6-[4-[(5-piperazin-1-ylpyrimidin-2-yl)methyl]piperazin-1-yl]-3-pyridyl]-1,3-dimethyl-pyridin-2-one] | 15.270% | 0.46 ×10⁻⁶ cm/s | medium & high (“medium & high” (Pe >= 0.2; or Pe < 0.2 and membrane retention >= 20%)) | 8.8 mL/min/kg
Cc1cc(-c2ccc(N3CCN(Cc4cnc(N5CC(C)(N)C5)nc4)CC3)nc2C(C)C)cn(C)c1=O [Example 10, 5-[6-[4-[[2-(3-amino-3-methyl-azetidin-1-yl)pyrimidin-5-yl]methyl]piperazin-1-yl]-2-isopropyl-3-pyridyl]-1,3-dimethyl-pyridin-2-one] | 7.250% | 0.6 ×10⁻⁶ cm/s | medium & high (“medium & high” (Pe >= 0.2; or Pe < 0.2 and membrane retention >= 20%)) | –
CCc1nc(N2CCN(Cc3ccc(N4CC5(CNCCO5)C4)nc3)CC2)ccc1-c1cc(C)c(=O)n(C)c1 [Example 2, 5-[2-ethyl-6-[4-[[6-(5-oxa-2,8-diazaspiro[3.5]nonan-2-yl)-3 pyridyl]methyl]piperazin-1-yl]-3-pyridyl]-1,3-dimethyl-pyridin-2-one] | 10.600% | 0.49 ×10⁻⁶ cm/s | medium & high (“medium & high” (Pe >= 0.2; or Pe < 0.2 and membrane retention >= 20%)) | 12.0 mL/min/kg
CCc1nc(N2CCN(Cc3cnc(N4CC(C)(N)C4)nc3)CC2)ccc1-c1cc(C)c(=O)n(C)c1 [Example 3, 5-[6-[4-[[2-(3-amino-3-methyl-azetidin-1-yl)pyrimidin-5-yl]methyl]piperazin-1-yl]-2-ethyl-3-pyridyl]-1,3-dimethyl-pyridin-2-one] | -1.260% | 0.53 ×10⁻⁶ cm/s | medium & high (“medium & high” (Pe >= 0.2; or Pe < 0.2 and membrane retention >= 20%)) | 6.1 mL/min/kg
CCc1nc(N2CCN(Cc3cnc(N4CCOC[C@@H](N)C4)nc3)CC2)ccc1-c1cc(C)c(=O)n(C)c1 [Example 4, 5-[6-[4-[[2-[(6S)-6-amino-1,4-oxazepan-4-yl]pyrimidin-5-yl]methyl]piperazin-1-yl]-2-ethyl-3-pyridyl]-1,3-dimethyl-pyridin-2-one] | 15.690% | 0.75 ×10⁻⁶ cm/s | medium & high (“medium & high” (Pe >= 0.2; or Pe < 0.2 and membrane retention >= 20%)) | –
Cc1cc(-c2ccc(N3CCN(Cc4ccc(N5CCNCC5)cc4)CC3)nc2C(F)F)cn(C)c1=O [Example 17, 5-[2-(difluoromethyl)-6-[4-[(4-piperazin-1-ylphenyl)methyl]piperazin-1-yl]-3-pyridyl]-1,3-dimethyl-pyridin-2-one] | 50.950% | 1.5 ×10⁻⁶ cm/s | medium & high (“medium & high” (Pe >= 0.2; or Pe < 0.2 and membrane retention >= 20%)) | 8.5 mL/min/kg
Cc1cc(-c2ccc(N3CCN4CCN(c5ccc(N6CCNCC6)nc5)CC4C3)nc2C(C)C)cn(C)c1=O (stereo not shown) [Example 16, 5-[2-isopropyl-6-[8-(6-piperazin-1-yl-3-pyridyl)-3,4,6,7,9,9a-hexahydro-1H-pyrazino[1,2-a]pyrazin-2-yl]-3-pyridyl]-1,3-dimethyl-pyridin-2-one] | 30.770% | 0.24 ×10⁻⁶ cm/s | medium & high (“medium & high” (Pe >= 0.2; or Pe < 0.2 and membrane retention >= 20%)) | –
Cc1cc(-c2ccc(N3CCN(Cc4cnc(N5CC6(CNCCO6)C5)nc4)CC3)nc2C(C)C)cn(C)c1=O [Example 6, 5-[2-isopropyl-6-[4-[[2-(5-oxa-2,8-diazaspiro[3.5]nonan-2-yl)pyrimidin-5-yl]methyl]piperazin-1-yl]-3-pyridyl]-1,3-dimethyl-pyridin-2-one] | 19.190% | 0.65 ×10⁻⁶ cm/s | medium & high (“medium & high” (Pe >= 0.2; or Pe < 0.2 and membrane retention >= 20%)) | –
